Patent publication US12558386B2, “Methods and compositions to modulate antibiotic resistance and gastrointestinal microbiota” (OHIO STATE INNOVATION FOUNDATION, priority 2018, dated 2026)
In brackets after ≈: the same amount, converted by molar mass. Like-named read-outs stand apart in the source and are kept apart here.

Tests used:
[1] = tested on: E. coli CA-1; assay: MIC assessment (TREK Sensititre); assay type: cell-based, Escherichia coli
Text: (§1) Bacterial strains. Multiple Amp^r strains from feces of broiler chickens without antibiotic treatment were recovered on Columbia blood Agar base (Becton, […] Dickinson and Company, Franklin Lakes, NJ) supplemented with 5% defibrinated sheep blood (Thermo Scientific™, Grand Island, NY).
(§2) Minimum inhibition concertation (MIC) assessment. A TREK Sensititre diagnostic system (Thermo scientific, Oakwood Village, OH, USA) was used to assess the AR phenotype and MIC of isolated strains. Protocols to use this system can be found on www.trekds.com. Cation-adjusted Mueller Hinton Broth (Becton, Dickinson and Company, MD, USA) was used as basic medium.

[2] = tested on: Lactobacillus crispatus CG-12; assay: MIC assessment (TREK Sensititre); assay type: cell-based
Experimental: (§3) Multiple commensal bacterial strains from chicken feces were recovered from Columbia blood Agar base (Becton, […] Dickinson and Company, Franklin Lakes, NJ) supplemented with 5% defibrinated sheep blood (Thermo Scientific™, Grand Island, NY), and maintained in Columbia broth (Becton Dickinson and Company, Franklin Lakes, NJ) and propagated by anaerobic growth at 37° C. The strains were subjected to antibiotic susceptibility assessment followed by strain identification.
as §2

[3] = tested on: E. coli CA-4; assay: MIC assessment (TREK Sensititre); assay type: cell-based, Escherichia coli
Experimental: as §1, with “NY). The strains were maintained in Columbia broth (Becton Dickinson and Company, Franklin Lakes, NJ), and propagated by aerobic growth at 37° C., and further subjected to strain identification and Minimum Inhibition Concentration (MIC) assessments.” for “NY).”
as §2

[4] = tested on: E. coli CA-20; assay: MIC assessment (TREK Sensititre); assay type: cell-based, Escherichia coli
Experimental: as §1, with “NY). The strains were maintained in Columbia broth (Becton Dickinson and Company, Franklin Lakes, NJ), and propagated by aerobic growth at 37° C., and further subjected to strain identification and Minimum Inhibition Concentration (MIC) assessments.” for “NY).”
as §2

[5] = tested on: Three Amp^r E. coli; assay: MIC assessment, summary for the three strains; assay type: cell-based, Escherichia coli; conditions: E. coli CA-1, CA-4 and CA-20 together
Experimental: as §1, with “NY). The strains were maintained in Columbia broth (Becton Dickinson and Company, Franklin Lakes, NJ), and propagated by aerobic growth at 37° C., and further subjected to strain identification and Minimum Inhibition Concentration (MIC) assessments.” for “NY).”
as §2

[6] = tested on: CG-12; assay: Screening of antibiotic susceptible commensal strains on antibiotic agar plates; assay type: cell-based, Lactobacillus crispatus; conditions: 16 μg/mL tetracycline, 100 μg/mL erythromycin, 32 μg/mL ampicillin, 152 μg/mL sulfamethoxazole with 8 μg/mL trimethoprim
Experimental: as §3
Screening of antibiotic susceptible commensal strains. Recovered commensal strain isolates (over 1000 colonies) were spotted on Columbia broth (Becton, […] Dickinson and Company, Franklin Lakes, NJ) agar plates containing each of the four antibiotics for rapid assessment of phenotypic resistance profiles. Screened antibiotics included 16 μg/mL tetracycline (Sigma-Aldrich, St. Louis, MO, USA), 100 μg/mL erythromycin (Fisher Scientific, Waltham, MA, USA), 32 μg/mL ampicillin (Sigma-Aldrich), and 152 μg/mL sulfamethoxazole (Sigma-Aldrich) with 8 μg/mL trimethoprim (Sigma-Aldrich).

[7] = tested on: poultry fecal/gut microbiota (Proteobacteria, ESBL E. coli); assay: Chicken study, metagenomics assessment #1 of pooled feces (FIG. 5); assay type: in vivo, chickens; conditions: Tween 80 treatment (Lanes 6, 8)
Text: FIGS. 5A and 5B show the impact of probiotic treatment on bacterial population in pooled feces of chickens. FIG. 5A) Phylum level; FIG. 5B) Class level. The treatments include Lane 1 (no, cocktail, no): no ESBL E. coli inoculation for 4 days, then inoculated with probiotic cocktail but no Tween 80; Lane 2 (no; no, no): no E. coli, no probiotics, no Tween 80; Lane 3: (probiotics, E. coli, no): probiotic cocktail for 4 days, followed by E. coli, but no Tween 80); Lane 4 (Yes, CG12, no): E. coli for 4 days, followed by Lb. crispatus (WZ12) for 4 days but no Tween 80; Lane 5 (yes, cocktail, no): E. coli for 4 days, followed by probiotic cocktail for 4 days, no Tween; Lane 6 ((yes, cocktail, yes): E. coli for 4 days, followed by probiotic cocktail for 4 days, with Tween 80; Lane 7 (Yes, no, no): E. coli for 4 days, saline for 4 days (no probiotics no Tween); Lane 8 (yes, no, yes): ESBL E. coli for 4 days, no probiotics but with Tween 80 for 4 days.
Animal Studies. The probiotics as disclosed herein were applied to chickens raised in a poultry facility, with the aim to examine the effectiveness of the treatment phenotypically and genetically (fecal microbiota) and physiologically (chickens); and to adjust receipt and procedure of feeding if necessary.
Treatments effective in modulating gut microbiota. […]

[8] = Escherichia coli, CA1, E. coli CA-1, read-out: MIC
[9] = Lactobacillus crispatus, CG12, L. crispatus CG-12, read-out: MIC
[10] = Escherichia coli, CA4, E. coli CA-4, read-out: MIC
[11] = Escherichia coli, CA20, E. coli CA-20, read-out: MIC

In the case of `CO/N=C(\C(=O)N[C@@H]1C(=O)N2C(C(=O)O)=C(CSc3nc(=O)c(=O)[nH]n3C)CS[C@H]12)c1csc(N)n1` [AXO, ceftriaxone], the MIC [1, 8] is reported as less than 8 µg/mL, the MIC [2, 9] is reported as less than 8 µg/mL and the MIC [3, 10] is reported as less than 8 µg/mL. For the same compound, the MIC [4, 11] was 16 µg/mL (≈ 28.9 µM) and the “resistance phenotype from MIC, in words” value ([4]; only E. coli CA-20) was “some resistant”.
For `O=C(O)c1cn(C2CC2)c2cc(N3CCNCC3)c(F)cc2c1=O` [CIP, ciprofloxacin], the “resistance phenotype from MIC, in words” value ([2]; L. crispatus CG-12) was “resistant” and the MIC [2, 9] was greater than 2 µg/mL.
With `CCC[C@@H]1C[C@@H](C(=O)N[C@@H]([C@H]2O[C@H](SC)[C@H](O)[C@@H](O)[C@H]2O)[C@H](C)Cl)N(C)C1` [CLI, clindamycin] the MIC [1, 8] was greater than 2 µg/mL, the MIC [2, 9] was less than 0.12 µg/mL and the MIC [3, 10] was greater than 2 µg/mL. For the same compound, the MIC [4, 11] was greater than 2 µg/mL.
In the case of `CCCCCCCCCC(=O)N[C@@H](Cc1c[nH]c2ccccc12)C(=O)N[C@H](CC(N)=O)C(=O)N[C@@H](CC(=O)O)C(=O)N[C@@H]1C(=O)NCC(=O)N[C@@H](CCCN)C(=O)N[C@@H](CC(=O)O)C(=O)N[C@H](C)C(=O)N[C@@H](CC(=O)O)C(=O)NCC(=O)N[C@H](CO)C(=O)N[C@@H]([C@H](C)CC(=O)O)C(=O)N[C@@H](CC(=O)c2ccccc2N)C(=O)O[C@@H]1C` [DAP, daptomycin], the MIC [1, 8] is reported as greater than 8 µg/mL, the “resistance phenotype from MIC, in words” value ([2]; L. crispatus CG-12) is reported as “resistant” and the MIC [2, 9] is reported as 4 µg/mL (≈ 2.47 µM). The “resistance phenotype from MIC, in words” value [5] was “resistant”, the MIC [3, 10] was greater than 8 µg/mL and the MIC [4, 11] was greater than 8 µg/mL.
For `CC[C@H]1OC(=O)[C@H](C)[C@@H](O[C@H]2C[C@@](C)(OC)[C@@H](O)[C@H](C)O2)[C@H](C)[C@@H](O[C@@H]2O[C@H](C)C[C@H](N(C)C)[C@H]2O)[C@](C)(O)C[C@@H](C)C(=O)[C@H](C)[C@@H](O)[C@]1(C)O` [ERY, erythromycin], the MIC [1, 8] was greater than 4 µg/mL, the MIC [2, 9] was less than 0.25 µg/mL and the “phenotypic susceptibility on antibiotic agar plates” value [6] was “susceptible”. For the same compound, the “resistance phenotype from MIC, in words” value [5] was “resistant”, the MIC [3, 10] was greater than 4 µg/mL and the MIC [4, 11] was greater than 4 µg/mL.
With `COc1c(N2CCNC(C)C2)c(F)cc2c(=O)c(C(=O)O)cn(C3CC3)c12` (stereo not drawn) [GAT, gatifloxacin] the MIC [1, 8] was less than 1 µg/mL, the “resistance phenotype from MIC, in words” value ([2]; L. crispatus CG-12) was “resistant” and the MIC [2, 9] was 4 µg/mL (≈ 10.7 µM). It also gave an MIC [3, 10] of less than 1 µg/mL and an MIC [4, 11] of less than 1 µg/mL.
With `C[C@H]1COc2c(N3CCN(C)CC3)c(F)cc3c(=O)c(C(=O)O)cn1c23` [LEVO, levofloxacin] the MIC [1, 8] was less than 0.25 µg/mL, the MIC [2, 9] was greater than 8 µg/mL and the MIC [3, 10] was less than 0.25 µg/mL. For the same compound, the MIC [4, 11] was less than 0.25 µg/mL.
For `CC(=O)NC[C@H]1CN(c2ccc(N3CCOCC3)c(F)c2)C(=O)O1` [LZD, linezolid], the MIC [1, 8] was greater than 8 µg/mL, the MIC [2, 9] was 2 µg/mL (≈ 5.93 µM) and the “resistance phenotype from MIC, in words” value [5] was “resistant”. For the same compound, the MIC [3, 10] was greater than 8 µg/mL and the MIC [4, 11] was greater than 8 µg/mL.
`CO[C@H]1/C=C/O[C@@]2(C)Oc3c(C)c(O)c4c(O)c(c(/C=N/N5CCN(C)CC5)c(O)c4c3C2=O)NC(=O)/C(C)=C\C=C\[C@H](C)[C@H](O)[C@@H](C)[C@@H](O)[C@@H](C)[C@H](OC(C)=O)[C@@H]1C` [RIF, rifampin] gave an MIC [1, 8] of 4 µg/mL (≈ 4.86 µM), an MIC [2, 9] of 1 µg/mL (≈ 1.22 µM) and an MIC [3, 10] greater than 4 µg/mL. It also gave an MIC [4, 11] of 4 µg/mL (≈ 4.86 µM).
With `[H]/N=C(/N)N[C@H]1[C@H](O)[C@@H](O)[C@H](O[C@@H]2O[C@@H](C)[C@](O)(C=O)[C@H]2O[C@@H]2O[C@@H](CO)[C@H](O)[C@@H](O)[C@@H]2NC)[C@@H](N/C(N)=N\[H])[C@@H]1O` [STR, streptomycin] the MIC [1, 8] was less than 1000 µg/mL, the MIC [2, 9] was less than 1000 µg/mL and the MIC [3, 10] was less than 1000 µg/mL. For the same compound, the MIC [4, 11] was less than 1000 µg/mL.
With `CN(C)[C@@H]1C(O)=C(C(N)=O)C(=O)[C@@]2(O)C(O)=C3C(=O)c4c(O)cccc4[C@@](C)(O)[C@H]3C[C@@H]12` [TET, tetracycline] the MIC [1, 8] was less than 2 µg/mL, the MIC [2, 9] was less than 2 µg/mL and the MIC [3, 10] was less than 2 µg/mL. The MIC [4, 11] was less than 2 µg/mL.
For `CCCCCCCC/C=C\CCCCCCCC(=O)OCCOCC(OCCO)C1OCC(OCCO)C1OCCO` (stereo not drawn) [Tween 80], the “effect on fecal microbiota” value [7] was “assisted the colonization of Proteobacteria but not the Firmicutes”.
For `CN[C@H](CC(C)C)C(=O)N[C@H]1C(=O)N[C@@H](CC(N)=O)C(=O)N[C@H]2C(=O)N[C@H]3C(=O)N[C@H](C(=O)N[C@H](C(=O)O)c4cc(O)cc(O)c4-c4cc3ccc4O)[C@H](O)c3ccc(c(Cl)c3)Oc3cc2cc(c3O[C@@H]2O[C@H](CO)[C@@H](O)[C@H](O)[C@H]2O[C@H]2C[C@](C)(N)[C@H](O)[C@H](C)O2)Oc2ccc(cc2Cl)[C@H]1O` [VAN, vancomycin], the MIC ([1]; Escherichia coli, CA1) was greater than 128 µg/mL, the MIC ([2]; Lactobacillus crispatus, CG12) was less than 1 µg/mL and the “resistance phenotype from MIC, in words” value [5] was “resistant”. For the same compound, the MIC ([3]; Escherichia coli, CA4) was greater than 128 µg/mL and the MIC ([4]; Escherichia coli, CA20) was greater than 128 µg/mL.
gentamicin was tested, and the MIC ([1]; E. coli CA-1) was 4 µg/mL, the MIC ([2]; L. crispatus CG-12) was 16 µg/mL and the MIC ([3]; E. coli CA-4) was 4 µg/mL. For the same compound, the MIC ([4]; E. coli CA-20) was 8 µg/mL.
With oxacillin + 2% NaC [OXA+] the MIC ([1]; E. coli CA-1) was greater than 8 µg/mL, the MIC ([2]; L. crispatus CG-12) was less than 0.25 µg/mL and the “resistance phenotype from MIC, in words” value [5] was “high resistance”. It also gave an MIC ([3]; E. coli CA-4) greater than 8 µg/mL and an MIC ([4]; E. coli CA-20) of 8 µg/mL.
For penicillin, the MIC ([1]; E. coli CA-1) was greater than 8 µg/mL, the MIC ([2]; L. crispatus CG-12) was 0.5 µg/mL and the “resistance phenotype from MIC, in words” value [5] was “high resistance”. It also gave an MIC ([3]; E. coli CA-4) greater than 8 µg/mL and an MIC ([4]; E. coli CA-20) greater than 8 µg/mL.
Compound quinupristin/dalfopristin [SYN] has an MIC ([1]; E. coli CA-1) greater than 4 µg/mL, an MIC ([2]; L. crispatus CG-12) of 0.25 µg/mL and an MIC ([3]; E. coli CA-4) greater than 4 µg/mL. For the same compound, the MIC ([4]; E. coli CA-20) was greater than 4 µg/mL.
With sulfamethoxazole/trimethoprim [SXT] the MIC ([2]; L. crispatus CG-12) was 2/38 and the “phenotypic susceptibility on antibiotic agar plates” value [6] was “susceptible”.
